Assay results reported in patent US20240247015A1, “PHOSPHORUS DERIVATIVES AS NOVEL SOS1 INHIBITORS” (BAYER AKTIENGESELLSCHAFT, priority 2021, published 2024).

Target: interaction of human SOS1 (SOS1) with human K-RasG12C (Homo sapiens (Human), UniProt Q07889)
Test: Biochemical assay: hK-RasG12C interaction assay with hSOS1 (HTRF)
Type: binding
Conditions: GST-hK-RasG12C with His-hSOS1, 60 min incubation at 20° C., mean, read-out: K-RasG12C - SOS interaction assay IC50 (mean)
How it was run: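 Compounds, duplicates at 11 concentrations from 0.073 nM to 20 µM, were preincubated 2 min with 10 nM GST-hK-RasG12C, then 20 nM His-hSOS1 was added, all at 20 °C. After 60 min, 665/620 nm HTRF ratio normalized to DMSO and SOS1-free controls; IC50 by 4-parameter fit.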

interaction of human SOS1 (SOS1) with human K-RasG12C, sequence (Q07889 564-1049 limits assumed): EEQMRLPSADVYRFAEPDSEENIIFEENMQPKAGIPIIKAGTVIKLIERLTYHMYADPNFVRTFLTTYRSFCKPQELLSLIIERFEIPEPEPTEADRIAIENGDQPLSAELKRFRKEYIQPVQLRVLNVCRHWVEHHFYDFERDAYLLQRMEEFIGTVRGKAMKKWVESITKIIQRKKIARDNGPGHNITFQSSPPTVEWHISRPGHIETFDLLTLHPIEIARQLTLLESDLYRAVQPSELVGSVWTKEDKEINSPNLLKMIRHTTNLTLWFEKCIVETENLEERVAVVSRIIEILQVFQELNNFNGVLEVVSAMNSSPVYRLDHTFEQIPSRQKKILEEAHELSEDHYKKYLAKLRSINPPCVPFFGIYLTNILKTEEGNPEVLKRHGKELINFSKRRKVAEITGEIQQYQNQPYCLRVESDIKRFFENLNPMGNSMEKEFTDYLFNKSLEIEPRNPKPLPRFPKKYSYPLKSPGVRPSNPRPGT

## Cc1nc(N[C@H](C)c2cccc(C(F)(F)F)c2C)c2cc(P3(=O)CCN(C(=O)C4(C#N)CC4)CC3)ncc2n1 [Example 167, 1-{4-[2-methyl-4-{{(1R)-1-[2-methyl-3-(trifluoromethyl)phenyl]ethyl}amino)pyrido[3,4-d]pyrimidin-6-yl]-4-oxo-1,4lambda^5-azaphosphinane-1-carbonyl}cyclopropane-1-carbonitrile]
  IC50: 12.7 nM

## Cc1nc(NC(C)c2ccnc(C(F)(F)F)c2)c2cc(P(C)(C)=O)ncc2n1 (single isomer, unassigned) [Example 25, 6-(dimethylphosphoryl)-2-methyl-N-{1-[2-(trifluoromethyl)pyridin-4-yl]ethyl}pyrido[3,4-d]pyrimidin-4-amine]
  IC50: 4850 nM

## Cc1nc(N[C@H](C)c2cccc(C(F)(F)C(C)(C)O)c2F)c2cc(P3(=O)CCCC3)c(C)nc2n1 [Example 20, 1-[4-({(1R)-1-[3-(1,1-difluoro-2-hydroxy-2-methylpropyl)-2-fluorophenyl]ethyl}amino)-2,7-dimethylpyrido[2,3-d]pyrimidin-6-yl]-1lambda^5-phospholan-1-one]
  IC50: 7.21 nM

## CO[C@H](C)C(=O)N1CCP(=O)(c2cc3c(N[C@H](C)c4cccc(C(F)F)c4F)nc(C)nc3cn2)CC1 [Example 155, 4-[4-{{(1R)-1-[3-(difluoromethyl)-2-fluorophenyl]ethyl}amino)-2-methylpyrido[3,4-d]pyrimidin-6-yl]-1-[(2R)-2-methoxypropanoyl]-1,4lambda^5-azaphosphinan-4-one]
  IC50: 11.1 nM

## Cc1nc(N[C@H](C)c2cccc(C(F)(F)C(C)(C)O)c2F)c2cc(P(C)(C)=O)cnc2n1 [Example 14, 1-{3-[(1R)-1-{[6-(dimethylphosphoryl)-2-methylpyrido[2,3-d]pyrimidin-4-yl]amino}ethyl]-2-fluorophenyl}-1,1-difluoro-2-methylpropan-2-ol]
  IC50: 9.78 nM

## Cc1nc(NC(C)c2ccnc(C(F)(F)F)c2)c2cc(P(C)(C)=O)ncc2n1 (single isomer, unassigned) [Example 24, 6-(dimethylphosphoryl)-2-methyl-N-{1-[2-(trifluoromethyl)pyridin-4-yl]ethyl}pyrido[3,4-d]pyrimidin-4-amine]
  IC50: > 20000 nM

## CO[C@@H](C)C(=O)N1CCP(=O)(c2cc3c(N[C@H](C)c4cccc(C(F)(F)F)c4C)nc(C)nc3cn2)CC1 [Example 176, 1-[(2S)-2-methoxypropanoyl]-4-[2-methyl-4-{{(1R)-1-[2-methyl-3-(trifluoromethyl)phenyl]ethyl}amino)pyrido[3,4-d]pyrimidin-6-yl]-1,4lambda^5-azaphosphinan-4-one]
  IC50: 6.82 nM

## Cc1nc(N[C@H](C)c2cccc(C(F)(F)CO)c2F)c2cc(P3(=O)CCCC3)ncc2n1 [Example 63, 1-[4-{{(1R)-1-[3-(1,1-difluoro-2-hydroxyethyl)-2-fluorophenyl]ethyl}amino)-2-methylpyrido[3,4-d]pyrimidin-6-yl]-1lambda^5-phospholan-1-one]
  IC50: 10.1 nM

## CC(=O)NCC(F)(F)c1cccc([C@@H](C)Nc2nc(C)nc3cnc(P4(=O)CCN(C(=O)C5CC5)CC4)cc23)c1F [Example 180, N-(2-{3-[(1R)-1-({6-[1-(cyclopropanecarbonyl)-4-oxo-1,4lambda^5-azaphosphinan-4-yl]-2-methylpyrido[3,4-d]pyrimidin-4-yl}amino)ethyl]-2-fluorophenyl}-2,2-difluoroethyl)acetamide]
  IC50: 4.6 nM

## CC(=S)N1CCP(=O)(c2cc3c(N[C@H](C)c4cccc(C(F)(F)F)c4C)nc(C)nc3cn2)CC1 [Example 32, 1-ethanethioyl-4-[2-methyl-4-({(1R)-1-[2-methyl-3-(trifluoromethyl)phenyl]ethyl}amino)pyrido[3,4-d]pyrimidin-6-yl]-1,4lambda^5-azaphosphinan-4-one]
  IC50: 12.2 nM

## Cc1nc(N[C@H](C)c2cccc(C(F)(F)C(=O)C(C)C)c2F)c2cc(P(C)(C)=O)ncc2n1 [Example 109, 1-{3-[(1R)-1-{[6-(dimethylphosphoryl)-2-methylpyrido[3,4-d]pyrimidin-4-yl]amino}ethyl]-2-fluorophenyl}-1,1-difluoro-3-methylbutan-2-one]
  IC50: 33.3 nM

## Cc1nc(N[C@H](C)c2cccc(C(F)(F)CNS(C)(=O)=O)c2F)c2cc(P3(=O)CCN(C(=O)C4CC4)CC3)ncc2n1 [Example 179, N-(2-{3-[(1R)-1-({6-[1-(cyclopropanecarbonyl)-4-oxo-1,4lambda^5-azaphosphinan-4-yl]-2-methylpyrido[3,4-d]pyrimidin-4-yl}amino)ethyl]-2-fluorophenyl}-2,2-difluoroethyl)methanesulfonamide]
  IC50: 3.68 nM

## Cc1nc(N[C@H](C)c2cccc(C(F)(F)C(C)O)c2F)c2cc(P(C)(C)=O)ncc2n1 (stereo in doubt) [Example 86, (2R*)-1-{3-[(1R)-1-{[6-(dimethylphosphoryl)-2-methylpyrido[3,4-d]pyrimidin-4-yl]amino}ethyl]-2-fluorophenyl}-1,1-difluoropropan-2-ol]
  IC50: 36.6 nM

## Cc1nc(N[C@H](C)c2cccc(C(F)(F)F)c2C)c2cc(P3(=O)CCCC3)ccc2n1 [Example 104, 1-[2-methyl-4-{{(1R)-1-[2-methyl-3-(trifluoromethyl)phenyl]ethyl}amino)quinazolin-6-yl]-1lambda^5-phospholan-1-one]
  IC50: 18.8 nM

## Cc1nc(N[C@H](C)c2cccc(C(F)F)c2F)c2cc(P(C)(C)=O)c(C)nc2n1 [Example 18, N-{(1R)-1-[3-(difluoromethyl)-2-fluorophenyl]ethyl}-6-(dimethylphosphoryl)-2,7-dimethylpyrido[2,3-d]pyrimidin-4-amine]
  IC50: 27.7 nM

## Cc1nc(N[C@H](C)c2cccc(C(F)(F)F)c2C)c2cc(P3(=O)CCN(S(C)(=O)=O)CC3)ncc2n1 [Example 41, 1-(methanesulfonyl)-4-[2-methyl-4-({(1R)-1-[2-methyl-3-(trifluoromethyl)phenyl]ethyl}amino)pyrido[3,4-d]pyrimidin-6-yl]-1,4lambda^5-azaphosphinan-4-one]
  IC50: 174 nM

## Cc1nc(N[C@H](C)c2cccc(C(F)(F)C(C)(C)O)c2F)c2cc(P(C)(=O)C(C)C)ncc2n1 (single isomer, unassigned) [Example 71]
  IC50: 35.4 nM

## CC(=O)N1CCP(=O)(c2cc3c(N[C@H](C)c4cccc(C(F)(F)CN(C(C)=O)C5CC5)c4F)nc(C)nc3cn2)CC1 [Example 202]
  IC50: 3.89 nM

## Cc1nc(N[C@H](C)c2cccc(C(F)F)c2F)c2cc(P(C)(C)=O)ccc2n1 [Example 128, N-{(1R)-1-[3-(difluoromethyl)-2-fluorophenyl]ethyl}-6-(dimethylphosphoryl)-2-methylquinazolin-4-amine]
  IC50: 20.9 nM

## Cc1nc(N[C@H](C)c2cccc(Br)c2F)c2cc(P(C)(C)=O)ncc2n1 [Example 56, N-[(1R)-1-(3-bromo-2-fluorophenyl)ethyl]-6-(dimethylphosphoryl)-2-methylpyrido[3,4-d]pyrimidin-4-amine]
  IC50: 74.1 nM

## Cc1nc(N[C@H](C)c2cccc(C(F)(F)C(=O)C(C)(C)C)c2F)c2cc(P(C)(C)=O)ncc2n1 [Example 110, 1-{3-[(1R)-1-{[6-(dimethylphosphoryl)-2-methylpyrido[3,4-d]pyrimidin-4-yl]amino}ethyl]-2-fluorophenyl}-1,1-difluoro-3,3-dimethylbutan-2-one]
  IC50: 56.8 nM
